# In PubChem BioAssay (NCI):
#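 Cultured in 96-well plates, cells were exposed to test compound for 48 hours across five concentrations. Definition used: TGI = concentration required for complete inhibition of growth.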
# Assays:
# Assay in all cases: growth of human tumour cells (NCI), 48 h
# 786-0 renal = system: 786-0 renal
# A498 renal = system: A498 renal
# A549 NSCLC = system: A549 NSCLC
# ACHN renal = system: ACHN renal
# BT-549 breast = system: BT-549 breast
# CAKI-1 renal = system: CAKI-1 renal
# CCRF-CEM leukemia = system: CCRF-CEM leukemia
# COLO 205 colon = system: COLO 205 colon
# DLD-1 colon = system: DLD-1 colon
# DMS 114 small cell lung = system: DMS 114 small cell lung
# DMS 273 small cell lung = system: DMS 273 small cell lung
# DU-145 prostate = system: DU-145 prostate
# EKVX NSCLC = system: EKVX NSCLC
# HCC-2998 colon = system: HCC-2998 colon
# HCT-116 colon = system: HCT-116 colon
# HCT-15 colon = system: HCT-15 colon
# HL-60(TB) leukemia = system: HL-60(TB) leukemia
# HOP-18 NSCLC = system: HOP-18 NSCLC
# HOP-62 NSCLC = system: HOP-62 NSCLC
# HOP-92 NSCLC = system: HOP-92 NSCLC
# HS 578T breast = system: HS 578T breast
# HT29 colon = system: HT29 colon
# IGROV1 ovarian = system: IGROV1 ovarian
# K-562 leukemia = system: K-562 leukemia
# KM12 colon = system: KM12 colon
# KM20L2 colon = system: KM20L2 colon
# LOX IMVI melanoma = system: LOX IMVI melanoma
# LXFL 529 NSCLC = system: LXFL 529 NSCLC
# M14 melanoma = system: M14 melanoma
# M19-MEL melanoma = system: M19-MEL melanoma
# MALME-3M melanoma = system: MALME-3M melanoma
# MCF7 breast = system: MCF7 breast
# MDA-MB-231 breast = system: MDA-MB-231 breast
# MDA-MB-435 = system: MDA-MB-435
# MDA-N = system: MDA-N
# MOLT-4 leukemia = system: MOLT-4 leukemia
# NCI-H226 lung = system: NCI-H226 lung
# NCI-H23 lung = system: NCI-H23 lung
# NCI-H460 lung = system: NCI-H460 lung
# NCI-H522 lung = system: NCI-H522 lung
# OVCAR-3 ovarian = system: OVCAR-3 ovarian
# OVCAR-4 ovarian = system: OVCAR-4 ovarian
# OVCAR-5 ovarian = system: OVCAR-5 ovarian
# OVCAR-8 ovarian = system: OVCAR-8 ovarian
# PC-3 prostate = system: PC-3 prostate
# RPMI-8226 leukemia = system: RPMI-8226 leukemia
# RXF 393 renal = system: RXF 393 renal
# SF-268 CNS = system: SF-268 CNS
# SF-295 CNS = system: SF-295 CNS
# SF-539 CNS = system: SF-539 CNS
# SK-MEL-2 melanoma = system: SK-MEL-2 melanoma
# SK-MEL-28 melanoma = system: SK-MEL-28 melanoma
# SK-MEL-5 melanoma = system: SK-MEL-5 melanoma
# SK-OV-3 ovarian = system: SK-OV-3 ovarian
# SN12C renal = system: SN12C renal
# SNB-19 CNS = system: SNB-19 CNS
# SNB-75 CNS = system: SNB-75 CNS
# SNB-78 CNS = system: SNB-78 CNS
# SR leukemia = system: SR leukemia
# SW-620 colon = system: SW-620 colon
# T-47D breast = system: T-47D breast
# TK-10 renal = system: TK-10 renal
# U251 CNS = system: U251 CNS
# UACC-257 melanoma = system: UACC-257 melanoma
# UACC-62 melanoma = system: UACC-62 melanoma
# UO-31 renal = system: UO-31 renal
# XF 498 CNS = system: XF 498 CNS
# RXF-631 renal = system: RXF-631 renal
structure (smiles),measurement,setting,value
Cc1ccc(NCCN(C)C)c2c(=O)c3cc(O)ccc3sc12,TGI,786-0 renal,9.07 µM
same,TGI,A498 renal,21.9 µM
same,TGI,A549 NSCLC,8.08 µM
same,TGI,ACHN renal,7.31 µM
same,TGI,BT-549 breast,20.3 µM
same,TGI,CAKI-1 renal,11.6 µM
same,TGI,CCRF-CEM leukemia,5.7 µM
same,TGI,COLO 205 colon,23.2 µM
same,TGI,DLD-1 colon,19.9 µM
same,TGI,DMS 114 small cell lung,28 µM
same,TGI,DMS 273 small cell lung,15.9 µM
same,TGI,DU-145 prostate,15.6 µM
same,TGI,EKVX NSCLC,27.6 µM
same,TGI,HCC-2998 colon,10.4 µM
same,TGI,HCT-116 colon,8.79 µM
same,TGI,HCT-15 colon,9.99 µM
same,TGI,HL-60(TB) leukemia,6.07 µM
same,TGI,HOP-18 NSCLC,15.3 µM
same,TGI,HOP-62 NSCLC,6.21 µM
same,TGI,HOP-92 NSCLC,14.4 µM
same,TGI,HS 578T breast,3.87 µM
same,TGI,HT29 colon,8.2 µM
same,TGI,IGROV1 ovarian,17.2 µM
same,TGI,K-562 leukemia,11.7 µM
same,TGI,KM12 colon,11.4 µM
same,TGI,KM20L2 colon,22 µM
same,TGI,LOX IMVI melanoma,7.84 µM
same,TGI,LXFL 529 NSCLC,21.7 µM
same,TGI,M14 melanoma,10.4 µM
same,TGI,M19-MEL melanoma,23.1 µM
same,TGI,MALME-3M melanoma,11.2 µM
same,TGI,MCF7 breast,1.59 µM
same,TGI,MDA-MB-231 breast,4.6 µM
same,TGI,MDA-MB-435,2.94 µM
same,TGI,MDA-N,4.58 µM
same,TGI,MOLT-4 leukemia,3.2 µM
same,TGI,NCI-H226 lung,15.2 µM
same,TGI,NCI-H23 lung,16.8 µM
same,TGI,NCI-H460 lung,5.72 µM
same,TGI,NCI-H522 lung,11.1 µM
same,TGI,OVCAR-3 ovarian,18.6 µM
same,TGI,OVCAR-4 ovarian,14.1 µM
same,TGI,OVCAR-5 ovarian,29.6 µM
same,TGI,OVCAR-8 ovarian,6.84 µM
same,TGI,PC-3 prostate,11.1 µM
same,TGI,RPMI-8226 leukemia,11.6 µM
same,TGI,RXF 393 renal,4.8 µM
same,TGI,SF-268 CNS,15.6 µM
same,TGI,SF-295 CNS,18.4 µM
same,TGI,SF-539 CNS,10.4 µM
same,TGI,SK-MEL-2 melanoma,35.7 µM
same,TGI,SK-MEL-28 melanoma,12.5 µM
same,TGI,SK-MEL-5 melanoma,9.88 µM
same,TGI,SK-OV-3 ovarian,9.84 µM
same,TGI,SN12C renal,14 µM
same,TGI,SNB-19 CNS,16.1 µM
same,TGI,SNB-75 CNS,9.24 µM
same,TGI,SNB-78 CNS,33.7 µM
same,TGI,SR leukemia,4.79 µM
same,TGI,SW-620 colon,5.76 µM
same,TGI,T-47D breast,28.4 µM
same,TGI,TK-10 renal,33.9 µM
same,TGI,U251 CNS,8.49 µM
same,TGI,UACC-257 melanoma,20.7 µM
same,TGI,UACC-62 melanoma,9.78 µM
same,TGI,UO-31 renal,17.4 µM
same,TGI,XF 498 CNS,17.2 µM
COc1cc([C@@H]2Oc3cc4oc(-c5ccccc5)cc(=O)c4c(O)c3O[C@H]2OC)ccc1O,TGI,786-0 renal,20.8 µM
same,TGI,A498 renal,32.3 µM
same,TGI,ACHN renal,23.1 µM
same,TGI,CAKI-1 renal,34.4 µM
same,TGI,CCRF-CEM leukemia,27.8 µM
same,TGI,COLO 205 colon,50.2 µM
same,TGI,DLD-1 colon,21.2 µM
same,TGI,DMS 273 small cell lung,14.4 µM
same,TGI,HCC-2998 colon,26.5 µM
same,TGI,HCT-116 colon,19.6 µM
same,TGI,HL-60(TB) leukemia,8.08 µM
same,TGI,HOP-62 NSCLC,26.9 µM
same,TGI,HOP-92 NSCLC,39.5 µM
same,TGI,IGROV1 ovarian,53.1 µM
same,TGI,K-562 leukemia,25.9 µM
same,TGI,LXFL 529 NSCLC,25.2 µM
same,TGI,M14 melanoma,24.7 µM
same,TGI,M19-MEL melanoma,24 µM
same,TGI,MALME-3M melanoma,30.6 µM
same,TGI,MOLT-4 leukemia,21.3 µM
same,TGI,NCI-H226 lung,38.4 µM
same,TGI,NCI-H23 lung,32.4 µM
same,TGI,NCI-H460 lung,15.2 µM
same,TGI,OVCAR-4 ovarian,29.1 µM
same,TGI,RPMI-8226 leukemia,25.9 µM
same,TGI,RXF-631 renal,32.6 µM
same,TGI,SF-268 CNS,19.7 µM
same,TGI,SF-539 CNS,30.6 µM
same,TGI,SK-MEL-2 melanoma,31.2 µM
same,TGI,SK-MEL-28 melanoma,16.8 µM
same,TGI,SK-OV-3 ovarian,34.1 µM
same,TGI,SN12C renal,25.5 µM
same,TGI,SNB-75 CNS,25.1 µM
same,TGI,SNB-78 CNS,38.2 µM
same,TGI,SR leukemia,18.5 µM
same,TGI,UACC-62 melanoma,37.7 µM
